# Measurements as given in patent US9944618B2, “Inhibiting neurotransmitter reuptake” (Mayo Foundation for Medical Education and Research, priority 2013, dated 2018).
# Where two headings read alike, the source gives them in different places.
# Experiments:
# [1] = biological target: human norepinephrine transporter (Homo sapiens (Human), UniProt P23975); test: Human NET (norepinephrine transporter) uptake assay; type: cell-based; conditions: read-out: hNET Ki
# Method in brief: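 HEK293F cells transfected with human NET were thawed, plated at about 60,000 cells/well and held at 37 °C for at least 3 h. Compounds came from 10 mM DMSO stocks, with nomifensine as control, in 1×HBSS/0.02 M HEPES. Uptake was followed with a neurotransmitter transporter dye, dosed as % of vendor reconstitution, in triplicate.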
# [2] = biological target: human dopamine transporter (Homo sapiens (Human), UniProt Q01959); test: Human DAT (dopamine transporter) uptake assay; type: cell-based; conditions: read-out: hDAT Ki
# human dopamine transporter, sequence (Q01959 whole entry): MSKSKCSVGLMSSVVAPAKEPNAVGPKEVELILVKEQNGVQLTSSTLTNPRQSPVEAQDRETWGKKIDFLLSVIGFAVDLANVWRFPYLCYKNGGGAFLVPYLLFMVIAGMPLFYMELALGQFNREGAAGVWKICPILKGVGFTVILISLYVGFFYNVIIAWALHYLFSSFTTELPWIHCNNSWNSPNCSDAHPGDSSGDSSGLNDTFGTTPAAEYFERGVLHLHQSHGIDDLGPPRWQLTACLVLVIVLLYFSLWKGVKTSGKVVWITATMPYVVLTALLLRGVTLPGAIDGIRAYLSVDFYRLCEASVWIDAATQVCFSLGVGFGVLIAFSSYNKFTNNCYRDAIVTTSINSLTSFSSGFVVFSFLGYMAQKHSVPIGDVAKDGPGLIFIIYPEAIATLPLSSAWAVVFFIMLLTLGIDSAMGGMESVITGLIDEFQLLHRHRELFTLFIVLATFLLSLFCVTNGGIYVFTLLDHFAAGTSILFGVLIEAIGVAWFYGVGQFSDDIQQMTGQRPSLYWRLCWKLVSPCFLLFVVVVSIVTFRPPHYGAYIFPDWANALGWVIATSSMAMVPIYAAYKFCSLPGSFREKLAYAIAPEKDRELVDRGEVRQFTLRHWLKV
# Experimental: This protocol was designed to measure inhibition of uptake by the human dopamine transporter. […] The Assay Buffer (AB) was 1×HBSS and 0.02 M HEPES.
# (§1) The HEK293F cells were transfected with the human dopamine transporter and frozen in 1 mL aliquots at about 1E+07 cells/mL. On the day of the experiment, the cells were removed from −80° C. or liquid nitrogen and thawed in a room temperature water bath. The cells were dilute to about 1-2E+06 with Freestyle medium. A 1 mL sample (1:2 dilution) was prepared, and the cells were counted. The cells were spun at 1100 rpm for 5 minutes, and the medium was aspirated off. The cells were resuspend in medium at 1.5E+06 cells/mL for about 60,000 cells per well. 40 μL of cells were dispensed per well in the Biocoat plates. The plates were spun at 1100 rpm for 1 minute to improve homogeneity of the cell layer and were incubated at 37° C. for a minimum of 3 hours.
# 12 μL of test compound (10 mM) in DMSO was added to the wells, and nomifensine was used as a control. […] The neurotransmitter transporter dye was prepared in AB prior to use.
# Due to the proprietary nature of the dye formulation, all dye concentrations were expressed as a percentage of the vendor-recommended dye reconstitution. Thus, the above calculations were valid when both [dye] and K1 were expressed in the same units (%). Compounds were tested in triplicate (n=3).
# [3] = biological target: human serotonin transporter (Homo sapiens (Human), UniProt P31645); test: Human SERT (serotonin transporter) uptake assay; type: cell-based; conditions: read-out: hSERT Ki
# human serotonin transporter, sequence (P31645 whole entry): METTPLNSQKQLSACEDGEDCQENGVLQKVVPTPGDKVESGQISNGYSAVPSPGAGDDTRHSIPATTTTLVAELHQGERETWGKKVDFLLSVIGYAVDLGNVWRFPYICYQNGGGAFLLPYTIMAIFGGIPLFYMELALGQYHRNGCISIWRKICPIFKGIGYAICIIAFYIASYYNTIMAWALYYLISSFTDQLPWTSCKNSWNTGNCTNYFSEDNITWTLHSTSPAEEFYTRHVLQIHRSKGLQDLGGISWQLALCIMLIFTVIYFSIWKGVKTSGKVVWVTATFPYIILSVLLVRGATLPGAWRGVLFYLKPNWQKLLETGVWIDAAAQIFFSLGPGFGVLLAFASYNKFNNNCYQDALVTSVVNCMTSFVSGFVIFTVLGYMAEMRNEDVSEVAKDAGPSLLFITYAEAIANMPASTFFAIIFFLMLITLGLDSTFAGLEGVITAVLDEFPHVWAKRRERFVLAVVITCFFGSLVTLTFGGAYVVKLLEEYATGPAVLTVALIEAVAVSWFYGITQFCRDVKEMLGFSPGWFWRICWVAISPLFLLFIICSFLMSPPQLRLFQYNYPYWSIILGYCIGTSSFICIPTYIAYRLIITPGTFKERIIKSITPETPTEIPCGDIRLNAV
# Experimental: This protocol was designed to measure inhibition of uptake by the human serotonin transporter. […] The Assay Buffer (AB) was […] and 0.02 M HEPES.
# as §1, with “serotonin” for “dopamine”
# 12 μL of test compound (10 mM) in DMSO was added to the wells, and nomifensine was used as a control. Fluoxetine (final assay concentration of 10 μM) was used for background signal. The neurotransmitter transporter dye was prepared in AB prior to use.
# Due to the proprietary nature of the dye formulation, all dye concentrations were expressed as a percentage of the vendor-recommended dye reconstitution. Thus, the above calculations were valid when both [dye] and Km were expressed in the same units (%). Compounds were tested in triplicate (n=3).
# CYP3A4 = CYP3A4 (Homo sapiens (Human), UniProt P08684); test: Cytochrome P450 inhibition assay, recombinant CYP3A4 (BFC substrate); type: in vitro ADME; conditions: recombinant enzyme
# CYP3A4, sequence (P08684 whole entry): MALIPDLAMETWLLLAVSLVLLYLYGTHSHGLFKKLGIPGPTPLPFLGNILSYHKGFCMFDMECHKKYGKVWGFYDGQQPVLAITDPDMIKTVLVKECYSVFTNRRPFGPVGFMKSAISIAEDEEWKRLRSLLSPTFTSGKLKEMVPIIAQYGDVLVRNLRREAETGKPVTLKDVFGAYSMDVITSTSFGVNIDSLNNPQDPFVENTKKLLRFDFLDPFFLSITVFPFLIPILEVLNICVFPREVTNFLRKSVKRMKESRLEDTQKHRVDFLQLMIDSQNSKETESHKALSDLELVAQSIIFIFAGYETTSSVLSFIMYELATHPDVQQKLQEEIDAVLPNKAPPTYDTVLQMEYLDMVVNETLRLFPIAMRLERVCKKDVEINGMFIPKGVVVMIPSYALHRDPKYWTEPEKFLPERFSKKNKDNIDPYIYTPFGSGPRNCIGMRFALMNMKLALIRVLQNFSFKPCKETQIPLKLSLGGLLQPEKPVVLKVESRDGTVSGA
# CYP2D6 = CYP2D6 (Homo sapiens (Human), UniProt P10635); test: Cytochrome P450 inhibition assay, recombinant CYP2D6 (MAMC substrate); type: in vitro ADME; conditions: recombinant enzyme
# CYP2D6, sequence (P10635 whole entry): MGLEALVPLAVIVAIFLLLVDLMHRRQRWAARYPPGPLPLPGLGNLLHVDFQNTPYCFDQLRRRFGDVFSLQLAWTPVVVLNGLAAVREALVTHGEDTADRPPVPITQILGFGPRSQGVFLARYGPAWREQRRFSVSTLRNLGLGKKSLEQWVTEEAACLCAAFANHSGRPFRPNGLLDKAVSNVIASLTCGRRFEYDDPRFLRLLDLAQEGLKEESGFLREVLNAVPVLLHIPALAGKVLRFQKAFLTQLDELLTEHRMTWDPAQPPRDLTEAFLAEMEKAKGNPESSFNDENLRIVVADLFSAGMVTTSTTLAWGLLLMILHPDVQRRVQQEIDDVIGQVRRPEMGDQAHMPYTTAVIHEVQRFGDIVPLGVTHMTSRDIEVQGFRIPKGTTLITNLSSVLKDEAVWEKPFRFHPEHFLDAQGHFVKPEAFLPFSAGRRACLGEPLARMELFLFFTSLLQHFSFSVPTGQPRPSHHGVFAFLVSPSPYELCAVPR
# [4] = pKa of basic centres (Table 1); type: physicochemical
# [5] = first base, e.g., an aliphatic primary, secondary, or tertiary amine, read-out: pKa (Base 1)
# [6] = second base in the same molecule (if present), read-out: pKa (Base 2)
# human norepinephrine transporter, sequence (P23975 whole entry): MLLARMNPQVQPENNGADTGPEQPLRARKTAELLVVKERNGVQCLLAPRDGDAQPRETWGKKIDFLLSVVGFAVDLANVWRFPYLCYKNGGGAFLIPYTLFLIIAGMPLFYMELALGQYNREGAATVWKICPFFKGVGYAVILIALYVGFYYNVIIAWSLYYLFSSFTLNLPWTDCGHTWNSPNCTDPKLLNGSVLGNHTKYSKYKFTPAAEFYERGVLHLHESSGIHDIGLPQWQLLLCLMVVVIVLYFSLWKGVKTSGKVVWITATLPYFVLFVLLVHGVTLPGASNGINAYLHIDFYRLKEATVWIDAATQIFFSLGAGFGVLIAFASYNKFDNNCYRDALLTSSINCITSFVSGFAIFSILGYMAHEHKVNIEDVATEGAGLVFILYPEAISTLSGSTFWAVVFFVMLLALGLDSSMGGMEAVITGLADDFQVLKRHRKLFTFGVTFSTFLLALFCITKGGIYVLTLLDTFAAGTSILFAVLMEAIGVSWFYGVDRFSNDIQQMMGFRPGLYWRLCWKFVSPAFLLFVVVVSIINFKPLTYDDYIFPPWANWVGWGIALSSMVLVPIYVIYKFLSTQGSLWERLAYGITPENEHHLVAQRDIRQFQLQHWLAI
Compound,Ki [1],Ki [2],Ki [3],IC50 (CYP3A4),IC50 (CYP2D6),"pKa [4, 5]","pKa [4, 6]","pKa (Base 1) ([4]; first base, e.g., an aliphatic primary, secondary, or tertiary amine)",pKa (Base 2) ([4]; second base in the same molecule (if present))
"CNC[C@@H](c1ccc(Cl)c(Cl)c1)[C@@H](O)c1cccc(N(C)C)c1 (single isomer, unassigned) [Compound 108]",88.5 nM,57.1 nM,754 nM,≥ 20000 nM,2200 nM,9.5,4.9,,
"CNC[C@@H](c1ccc(Cl)c(Cl)c1)[C@@H](O)c1cccc([S+](C)[O-])c1 (single isomer, unassigned) [Compound 116]",195 nM,39.7 nM,1690 nM,20000 nM,15000 nM,9.4,,,
"CNC[C@H](c1ccc(Cl)c(Cl)c1)[C@H](O)c1cccc(N(C)C)c1 (single isomer, unassigned) [Compound 168]",89.3 nM,144 nM,178 nM,4600 nM,780 nM,9.5,4.9,,
CN1CO[C@H](c2ccccc2)[C@@H](c2ccc3ccccc3c2)C1 [Compound 4],1.4 nM,10.9 nM,2.5 nM,20000 nM,300 nM,6.6,,,
CNC[C@H](c1ccc2ccccc2c1)[C@H](O)c1ccncc1 [Compound 12],1.6 nM,52.6 nM,2.7 nM,20000 nM,880 nM,9.6,5.4,,
CNC[C@H](c1ccc(Cl)c(Cl)c1)[C@H](O)c1cccc(N)c1 [Compound 24],2.2 nM,21.9 nM,71.4 nM,20000 nM,1400 nM,9.4,4.3,,
CNC[C@H](c1ccc2ccccc2c1)[C@H](OCCO)c1ccccc1 [Compound 32],2.7 nM,15.8 nM,0.7 nM,20000 nM,560 nM,9.6,,,
CNC[C@H](c1ccc(OC)c(C)c1)[C@H](O)c1cccnc1 [Compound 55],4.6 nM,1630 nM,1.8 nM,20000 nM,810 nM,10,,,
CNC[C@H](c1ccc(Cl)c(Cl)c1)[C@@H](O)c1cccc(N)c1 [Compound 63],6.7 nM,78.2 nM,853 nM,8300 nM,2800 nM,9.4,4.3,,
CNCC(Cc1ccccc1)c1ccc2cccnc2c1 (centres unmarked) [Compound 75],10.4 nM,505 nM,2.1 nM,16000 nM,560 nM,10,4.8,,
CNC[C@H](c1ccc(Cl)c(Cl)c1)[C@H](O)c1cccc(S(C)(=O)=O)c1 [Compound 101],54.4 nM,73 nM,2740 nM,20000 nM,3500 nM,9.3,,,
CNC[C@H](c1ccc(Cl)c(Cl)c1)[C@H](O)c1cccc([N+](=O)[O-])c1 [Compound 102],55.2 nM,29.3 nM,86.2 nM,5700 nM,120 nM,9.3,,,
CNC[C@@H](c1ccc2ccccc2c1)[C@@H](O)c1cccnc1 [Compound 103],57.6 nM,91.9 nM,58.6 nM,20000 nM,11000 nM,,,9.6,5.1
CNC[C@H](c1ccc(Cl)c(Cl)c1)[C@@H](O)c1cccnc1OC [Compound 104],60.6 nM,94.6 nM,656 nM,270 nM,66 nM,9.2,3.2,,
